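Growth conditions: 96-well plates. Treatment: test compound, 48 hours, 5 concentrations. Analysis: linear interpolation between bracketing concentrations; unreached endpoints set to highest concentration. GI50 = concentration required for 50% inhibition of growth. Definition used: TGI = concentration required for complete inhibition of growth.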
Key:
Assay in all cases: NCI-60 cell line screen, 48 h
A549 NSCLC = system: A549 NSCLC
CAKI-1 renal = system: CAKI-1 renal
SF-268 CNS = system: SF-268 CNS
MOLT-4 leukemia = system: MOLT-4 leukemia
RXF 393 renal = system: RXF 393 renal
IGROV1 ovarian = system: IGROV1 ovarian
BT-549 breast = system: BT-549 breast
SNB-75 CNS = system: SNB-75 CNS
SR leukemia = system: SR leukemia
MCF7 breast = system: MCF7 breast
HOP-92 NSCLC = system: HOP-92 NSCLC
SK-OV-3 ovarian = system: SK-OV-3 ovarian
PC-3 prostate = system: PC-3 prostate
HS 578T breast = system: HS 578T breast
MDA-MB-435 = system: MDA-MB-435
NCI-H522 lung = system: NCI-H522 lung
A498 renal = system: A498 renal
UACC-62 melanoma = system: UACC-62 melanoma
HCT-15 colon = system: HCT-15 colon
TK-10 renal = system: TK-10 renal
786-0 renal = system: 786-0 renal
NCI-H460 lung = system: NCI-H460 lung
DU-145 prostate = system: DU-145 prostate
U251 CNS = system: U251 CNS
NCI-H226 lung = system: NCI-H226 lung
MALME-3M melanoma = system: MALME-3M melanoma
HT29 colon = system: HT29 colon
KM12 colon = system: KM12 colon
UO-31 renal = system: UO-31 renal
OVCAR-3 ovarian = system: OVCAR-3 ovarian
LOX IMVI melanoma = system: LOX IMVI melanoma
OVCAR-8 ovarian = system: OVCAR-8 ovarian
M14 melanoma = system: M14 melanoma
MDA-MB-231 breast = system: MDA-MB-231 breast
RPMI-8226 leukemia = system: RPMI-8226 leukemia
COLO 205 colon = system: COLO 205 colon
HCT-116 colon = system: HCT-116 colon
NCI-H23 lung = system: NCI-H23 lung
NCI/ADR-RES ovarian = system: NCI/ADR-RES ovarian
HCC-2998 colon = system: HCC-2998 colon
SF-295 CNS = system: SF-295 CNS
SNB-19 CNS = system: SNB-19 CNS
K-562 leukemia = system: K-562 leukemia
UACC-257 melanoma = system: UACC-257 melanoma
OVCAR-4 ovarian = system: OVCAR-4 ovarian
SK-MEL-5 melanoma = system: SK-MEL-5 melanoma
T-47D breast = system: T-47D breast
SN12C renal = system: SN12C renal
HOP-62 NSCLC = system: HOP-62 NSCLC
SW-620 colon = system: SW-620 colon
CCRF-CEM leukemia = system: CCRF-CEM leukemia
HL-60(TB) leukemia = system: HL-60(TB) leukemia
OVCAR-5 ovarian = system: OVCAR-5 ovarian
SK-MEL-2 melanoma = system: SK-MEL-2 melanoma
EKVX NSCLC = system: EKVX NSCLC
SF-539 CNS = system: SF-539 CNS
SK-MEL-28 melanoma = system: SK-MEL-28 melanoma

Clc1ccc(Nc2ccnc(N3CCN(c4ccnc5cc(Cl)ccc45)CC3)n2)cc1
GI50 (A549 NSCLC): 3.32 µM
TGI (A549 NSCLC): > 100 µM
GI50 (CAKI-1 renal): 2.47 µM
TGI (CAKI-1 renal): 15.6 µM
GI50 (SF-268 CNS): 3.33 µM
TGI (SF-268 CNS): 16.2 µM
GI50 (MOLT-4 leukemia): 2.94 µM
TGI (MOLT-4 leukemia): 9.97 µM
GI50 (RXF 393 renal): 2.35 µM
TGI (RXF 393 renal): 7.65 µM
GI50 (IGROV1 ovarian): 3.82 µM
TGI (IGROV1 ovarian): > 100 µM
GI50 (BT-549 breast): 2.13 µM
TGI (BT-549 breast): 6.92 µM
GI50 (SNB-75 CNS): 1.79 µM
TGI (SNB-75 CNS): 7.29 µM
GI50 (SR leukemia): 2.51 µM
TGI (SR leukemia): 8.75 µM
GI50 (MCF7 breast): 1.96 µM
TGI (MCF7 breast): 6.87 µM
GI50 (HOP-92 NSCLC): 0.935 µM
TGI (HOP-92 NSCLC): 4.18 µM
GI50 (SK-OV-3 ovarian): 3.28 µM
TGI (SK-OV-3 ovarian): 44.7 µM
GI50 (PC-3 prostate): 1.98 µM
TGI (PC-3 prostate): 13.3 µM
GI50 (HS 578T breast): 1.75 µM
TGI (HS 578T breast): 7.79 µM
GI50 (MDA-MB-435): 1.86 µM
TGI (MDA-MB-435): 5.99 µM
GI50 (NCI-H522 lung): 1.65 µM
TGI (NCI-H522 lung): 4.94 µM
GI50 (A498 renal): 0.603 µM
TGI (A498 renal): 6.91 µM
GI50 (UACC-62 melanoma): 1.95 µM
TGI (UACC-62 melanoma): 6.97 µM
GI50 (HCT-15 colon): 2.49 µM
TGI (HCT-15 colon): 10 µM
GI50 (TK-10 renal): 3.43 µM
TGI (TK-10 renal): 8.5 µM
GI50 (786-0 renal): 2.38 µM
TGI (786-0 renal): 7.88 µM
GI50 (NCI-H460 lung): 2.33 µM
TGI (NCI-H460 lung): 6.76 µM
GI50 (DU-145 prostate): 4.8 µM
TGI (DU-145 prostate): 31.6 µM
GI50 (U251 CNS): 2.84 µM
TGI (U251 CNS): 11.1 µM
GI50 (NCI-H226 lung): 3.96 µM
TGI (NCI-H226 lung): 23.4 µM
GI50 (MALME-3M melanoma): 2.32 µM
TGI (MALME-3M melanoma): 9.82 µM
GI50 (HT29 colon): 2.03 µM
TGI (HT29 colon): 4.88 µM
GI50 (KM12 colon): 3.04 µM
TGI (KM12 colon): 11.5 µM
GI50 (UO-31 renal): 1.28 µM
TGI (UO-31 renal): 5.61 µM
GI50 (OVCAR-3 ovarian): 2.93 µM
TGI (OVCAR-3 ovarian): 9.87 µM
GI50 (LOX IMVI melanoma): 1.84 µM
TGI (LOX IMVI melanoma): 3.58 µM
GI50 (OVCAR-8 ovarian): 3.15 µM
TGI (OVCAR-8 ovarian): 21.3 µM
GI50 (M14 melanoma): 1.77 µM
TGI (M14 melanoma): 4.16 µM
GI50 (MDA-MB-231 breast): 2.22 µM
TGI (MDA-MB-231 breast): 7.22 µM
GI50 (RPMI-8226 leukemia): 2.75 µM
TGI (RPMI-8226 leukemia): 15.1 µM
GI50 (COLO 205 colon): 1.92 µM
TGI (COLO 205 colon): 4.63 µM
GI50 (HCT-116 colon): 1.99 µM
TGI (HCT-116 colon): 6.38 µM
GI50 (NCI-H23 lung): 4.32 µM
TGI (NCI-H23 lung): 52.3 µM
GI50 (NCI/ADR-RES ovarian): 2.68 µM
TGI (NCI/ADR-RES ovarian): 7.83 µM
GI50 (HCC-2998 colon): 3.39 µM
TGI (HCC-2998 colon): 9.63 µM
GI50 (SF-295 CNS): 1.73 µM
TGI (SF-295 CNS): 4.23 µM
GI50 (SNB-19 CNS): 3.68 µM
TGI (SNB-19 CNS): 74.5 µM
GI50 (K-562 leukemia): 2.56 µM
TGI (K-562 leukemia): 7.94 µM
GI50 (UACC-257 melanoma): 3.05 µM
TGI (UACC-257 melanoma): 13.5 µM
GI50 (OVCAR-4 ovarian): 2.56 µM
TGI (OVCAR-4 ovarian): > 100 µM
GI50 (SK-MEL-5 melanoma): 1.81 µM
TGI (SK-MEL-5 melanoma): 3.66 µM
GI50 (T-47D breast): 1.99 µM
TGI (T-47D breast): 8.53 µM
GI50 (SN12C renal): 3 µM
TGI (SN12C renal): 28.6 µM
GI50 (HOP-62 NSCLC): 3.1 µM
TGI (HOP-62 NSCLC): 20.9 µM
GI50 (SW-620 colon): 2.88 µM
TGI (SW-620 colon): 11.6 µM
GI50 (CCRF-CEM leukemia): 3.07 µM
TGI (CCRF-CEM leukemia): 20.6 µM
GI50 (HL-60(TB) leukemia): 3.54 µM
TGI (HL-60(TB) leukemia): 20 µM

CCCCCCn1c(-c2ccc(C(=O)O/N=C(\N)c3ccc4ccccc4c3)cc2)nc(-c2ccccc2)c1-c1ccccc1
GI50 (OVCAR-5 ovarian): > 100 µM
TGI (OVCAR-5 ovarian): > 100 µM
GI50 (A549 NSCLC): 2.55 µM
TGI (A549 NSCLC): > 100 µM
GI50 (CAKI-1 renal): 2.65 µM
TGI (CAKI-1 renal): 55.1 µM
GI50 (SF-268 CNS): 6.71 µM
TGI (SF-268 CNS): > 100 µM
GI50 (MOLT-4 leukemia): > 100 µM
TGI (MOLT-4 leukemia): > 100 µM
GI50 (RXF 393 renal): 5.28 µM
TGI (RXF 393 renal): 29.7 µM
GI50 (BT-549 breast): 8 µM
TGI (BT-549 breast): > 100 µM
GI50 (SNB-75 CNS): 2.18 µM
TGI (SNB-75 CNS): 20.1 µM
GI50 (MCF7 breast): 4.3 µM
TGI (MCF7 breast): > 100 µM
GI50 (HOP-92 NSCLC): 1.92 µM
TGI (HOP-92 NSCLC): 7.77 µM
GI50 (SK-OV-3 ovarian): 25.9 µM
TGI (SK-OV-3 ovarian): > 90.9 µM
GI50 (PC-3 prostate): 7.32 µM
TGI (PC-3 prostate): > 100 µM
GI50 (HS 578T breast): 2.55 µM
TGI (HS 578T breast): > 28.7 µM
GI50 (MDA-MB-435): 7.42 µM
TGI (MDA-MB-435): > 100 µM
GI50 (SK-MEL-2 melanoma): 25.6 µM
TGI (SK-MEL-2 melanoma): > 93.2 µM
GI50 (NCI-H522 lung): 24.5 µM
TGI (NCI-H522 lung): > 100 µM
GI50 (A498 renal): 2.09 µM
TGI (A498 renal): > 26 µM
GI50 (UACC-62 melanoma): 22.6 µM
TGI (UACC-62 melanoma): > 100 µM
GI50 (HCT-15 colon): 7.53 µM
TGI (HCT-15 colon): > 100 µM
GI50 (TK-10 renal): 16 µM
TGI (TK-10 renal): > 88.5 µM
GI50 (786-0 renal): 7.63 µM
TGI (786-0 renal): > 100 µM
GI50 (NCI-H460 lung): > 100 µM
TGI (NCI-H460 lung): > 100 µM
GI50 (DU-145 prostate): > 100 µM
TGI (DU-145 prostate): > 100 µM
GI50 (U251 CNS): 7.64 µM
TGI (U251 CNS): > 100 µM
GI50 (NCI-H226 lung): 27.3 µM
TGI (NCI-H226 lung): > 100 µM
GI50 (MALME-3M melanoma): > 49.9 µM
TGI (MALME-3M melanoma): > 100 µM
GI50 (HT29 colon): > 100 µM
TGI (HT29 colon): > 100 µM
GI50 (EKVX NSCLC): 6.73 µM
TGI (EKVX NSCLC): > 100 µM
GI50 (KM12 colon): > 100 µM
TGI (KM12 colon): > 100 µM
GI50 (UO-31 renal): 2.17 µM
TGI (UO-31 renal): > 100 µM
GI50 (OVCAR-3 ovarian): > 100 µM
TGI (OVCAR-3 ovarian): > 100 µM
GI50 (SF-539 CNS): 12.5 µM
TGI (SF-539 CNS): > 100 µM
GI50 (OVCAR-8 ovarian): > 96.3 µM
TGI (OVCAR-8 ovarian): > 100 µM
GI50 (M14 melanoma): > 83.5 µM
TGI (M14 melanoma): > 100 µM
GI50 (MDA-MB-231 breast): 17.8 µM
TGI (MDA-MB-231 breast): > 100 µM
GI50 (COLO 205 colon): > 100 µM
TGI (COLO 205 colon): > 100 µM
GI50 (HCT-116 colon): 4.2 µM
TGI (HCT-116 colon): > 100 µM
GI50 (NCI-H23 lung): 7.57 µM
TGI (NCI-H23 lung): > 100 µM
GI50 (SK-MEL-28 melanoma): > 100 µM
TGI (SK-MEL-28 melanoma): > 100 µM
GI50 (NCI/ADR-RES ovarian): 3.02 µM
TGI (NCI/ADR-RES ovarian): > 100 µM
GI50 (HCC-2998 colon): > 100 µM
TGI (HCC-2998 colon): > 100 µM
GI50 (SF-295 CNS): 11.8 µM
TGI (SF-295 CNS): > 83.7 µM
GI50 (SNB-19 CNS): 22.3 µM
TGI (SNB-19 CNS): > 100 µM
GI50 (K-562 leukemia): 2.42 µM
TGI (K-562 leukemia): > 100 µM
GI50 (UACC-257 melanoma): > 100 µM
TGI (UACC-257 melanoma): > 100 µM
GI50 (OVCAR-4 ovarian): > 100 µM
TGI (OVCAR-4 ovarian): > 100 µM
GI50 (SK-MEL-5 melanoma): > 100 µM
TGI (SK-MEL-5 melanoma): > 100 µM
GI50 (T-47D breast): 4.99 µM
TGI (T-47D breast): > 100 µM
GI50 (SN12C renal): > 100 µM
TGI (SN12C renal): > 100 µM
GI50 (HOP-62 NSCLC): 5.77 µM
TGI (HOP-62 NSCLC): > 100 µM
GI50 (SW-620 colon): > 100 µM
TGI (SW-620 colon): > 100 µM
GI50 (CCRF-CEM leukemia): 1.51 µM
TGI (CCRF-CEM leukemia): > 100 µM
GI50 (HL-60(TB) leukemia): 1.33 µM
TGI (HL-60(TB) leukemia): > 100 µM
